Source: patent publication US6277835A, “Method of tumor treatment” (priority 2000, dated 2001)

Key:
[1] = test system: peripheral white cell counts (bone marrow); assay: Peripheral white cell counts; conditions: day 3; tirapazamine […]; cisplatin 10, 14 and 18 mg/kg
Experimental: Blood samples were taken from tail veins or by cardiac puncture. No anticoagulants were used. Peripheral white cell counts for individual mice were determined from 20 μl whole blood diluted in 0.280 ml 3% acetic acid. For serum BUN assays, blood from two mice was pooled, coagulated, vortexed, and centrifuged at 830 g for 15 minutes. After the serum was aspirated, BUN values were determined by a commercial clinical veterinary laboratory. Survival to 30 days was also recorded in another experiment.

[2] = test system: kidney (blood urea nitrogen); assay: Serum BUN assay; format: in vivo, C3H mice; conditions: day six
Excerpt: No anticoagulants were used.

RIF-1 cells [3] = assay: In vitro RIF-1 clonogenic cell survival under hypoxic conditions; format: cell-based; conditions: Mus musculus, RIF-1, 1 h, read-out: cell survival
Experimental: (§1) For the studies on cells in vitro, RIF-1 cells were seeded into 60 mm glass petri dishes in Waymouth's medium supplemented with 15% fetal bovine serum at a concentration of 2×10^4 cells per dish. The experiments were performed 4 to 5 days later when there were approximately 10^6 cell per dish at the time of treatment. The growth medium was then replaced with 2 ml of medium without serum containing tirapazamine at a concentration of either 2 or 4 μg/ml. […] To achieve hypoxia, the dishes were loaded into specially fabricated, prewarmed aluminum gassing chambers which were placed in a shaking table and connected to a gassing manifold comprising a vacuum outlet line and inlet lines for air or nitrogen (+5% CO^2). […] After gassing, the chambers were sealed and incubated for one hour at 37 C.

RIF-1 cells [4] = test system: RIF-1 cells
Experimental: as §1

[5] = test system: FSaIIC Murine Fibrosarcoma; conditions: cited from earlier work

| SMILES | leukopenia [1] | BUN level ([2]; 10 mg/kg cisplatin alone, similar to untreated) | BUN level ([2]; 14 mg/kg cisplatin alone, similar to untreated) | BUN level ([2]; 18 mg/kg cisplatin alone) | viability at 2 µg/mL (RIF-1 cells [3]) [%] | viability at 4 µg/mL (RIF-1 cells [3]) [%] | cytotoxicity under aerobic conditions (RIF-1 cells [4]) | effect on tumor cells with carmustine ([5]; SR 4233 just before single-dose carmustine) | effect on tumor cells with cyclophosphamide ([5]; SR 4233 just before single-dose cyclophosphamide) | effect on tumor cells with melphalan ([5]; SR 4233 just before single-dose melphalan) | effect with cisplatin ([5]; SR 4233 just prior to single-dose cisplatin) |
| --- | --- | --- | --- | --- | --- | --- | --- | --- | --- | --- | --- |
| N.N.[Cl][Pt][Cl] [cisplatin] | mild leukopenia | approximately 30 mg/dl | approximately 30 mg/dl | about 80 mg/dl | – | – | – | – | – | – | – |
| Nc1n[n+]([O-])c2ccccc2[n+]1[O-] [tirapazamine, 3-amino-1,2,4-benzotriazine 1,4-dioxide] | – | – | – | – | 30 | 0.9 | no cytotoxicity | marked dose enhancement leading to synergistic cytotoxic effects on tumor cells | marked dose enhancement leading to synergistic cytotoxic effects on tumor cells | marked dose enhancement leading to synergistic cytotoxic effects on tumor cells | additive effect, except at the highest dose level of cisplatin |
